Laboratory results: EP1561465A2, “Methods of use of fluoroquinolone compounds against bacteria” (LG Life Sciences, Ltd., priority 1999, dated 2001)
≈ marks a conversion by molar mass, not a printed value.

What was measured:
Assay in all cases: MIC by agar dilution (NCCLS), 322 nosocomial Gram negative isolates, Athens 1998
Type in all cases: cell-based
[1] = tested on: Pseudomonas aeruginosa; conditions: n = 57 isolates
[2] = tested on: Klebsiella pneumoniae; conditions: Klebsiella pneumoniae; n = 56 isolates
[3] = tested on: Proteus mirabilis; conditions: Proteus mirabilis; n = 57 isolates
[4] = tested on: Enterobacter spp.; conditions: Enterobacter, n = 57 isolates; for MIC50: read-out: MIC50; for MIC90: read-out: MIC90
[5] = tested on: Acinetobacter spp.; conditions: Acinetobacter; n = 38 strains
[6] = tested on: Escherichia coli; conditions: n = 57 isolates

MIC50 [1]	MIC90 [1]	MIC50 [2]	MIC90 [2]	MIC50 [3]	MIC90 [3]	MIC50 [4]	MIC90 [4]	MIC50 [5]	MIC90 [5]	MIC50 ([6]; Escherichia coli)	MIC90 ([6]; Escherichia coli)	MIC Range [6]	Compound
8 µg/mL (≈ 16.6 µM)	> 64 µg/mL	0.06 µg/mL (≈ 0.125 µM)	8 µg/mL (≈ 16.6 µM)	0.125 µg/mL (≈ 0.26 µM)	8 µg/mL (≈ 16.6 µM)	0.125 µg/mL (≈ 0.26 µM)	16 µg/mL (≈ 33.3 µM)	16 µg/mL (≈ 33.3 µM)	64 µg/mL (≈ 133 µM)	–	–	–	CO/N=C(\C(=O)N[C@@H]1C(=O)N2C(C(=O)[O-])=C(C[N+]3(C)CCCC3)CS[C@H]12)c1csc(N)n1 [Cefepime]
–	–	4 µg/mL (≈ 9.36 µM)	16 µg/mL (≈ 37.4 µM)	4 µg/mL (≈ 9.36 µM)	16 µg/mL (≈ 37.4 µM)	> 64 µg/mL	> 64 µg/mL	> 64 µg/mL	> 64 µg/mL	4 µg/mL (≈ 9.36 µM)	16 µg/mL (≈ 37.4 µM)	2 to 32 µg/mL	CO[C@@]1(NC(=O)Cc2cccs2)C(=O)N2C(C(=O)O)=C(COC(N)=O)CS[C@@H]21 [Cefoxitin]
